How the values were obtained:
[1] = system: tonic seizures (electrically induced convulsions); assay: Maximal Electroshock (percent protection from tonic seizures); assay type: in vivo; details: mice; for ED50: Mus musculus, ip, 0.5 h, intraperitoneal, 30 minutes prior to electrical challenge
Procedure: (§1) The pharmacological tests used are (1) maximal electroshock and (2) pentylenetetrazole (Metrazole®) chemical challenge where the percent protection afforded by the test compounds against convulsions induced by electrical stimulus or by the drug Metrazole is determined. These test procedures are described further hereinbelow.
(§2) The pharmacological test data are expressed either as an ED50 (mg/kg) or percent protection/dose (mg/kg) for test compounds administered intraperitoneally (IP) in mice.
Adult female mice in groups of eight were administered the test drug intraperitoneally (usually 100 mg/kg initially for screening) in liquid carrier (10 mg/ml), usually physiological saline or water, 30 minutes prior to electrical challenge. Animals were challenged electrically by placing brass electrodes on the corneas and applying an electrical stimulus (60 Hz, 5 m sec. pulse width, 34 mA intensity) for 0.2 seconds by way of a Grass Stimulator® and constant current unit and a Hunter Timer®. The absence of tonic seizures upon cessation of the stimuli was scored as protection in that animal. The number of animals protected from tonic seizures at a given dose of test drug was determined. […] EXP. THER. 96, 99-113.

[2] = system: pentylenetetrazol-induced convulsions; assay: Metrazole Chemical Challenge (Swinyard Method); assay type: in vivo; details: mice; for ED50: Mus musculus, ip, 0.5 h, intraperitoneal, 1/2 hour before Metrazole 80 mg/kg S.C.
Procedure: as §1, §2
Groups of 8 adult female mice were randomly assigned to dosage groups according to the method of Steel, R. G. D., and Torrie, J. H. (1960) in "Principles and Procedures of Statistics", McGraw-Hill Book Company, Inc., pp 99-100, pp 428-31. Each mouse was identified with a color code on its tail. The test compounds were administered as solutions or suspensions in 10 ml/kg mouse body weight of 0.5% aqueous methyl cellulose within 15 minutes of preparation of the suspension. Metrazole® (pentylenetetrazol) was prepared as a solution in physiological saline. The mice were not fasted prior to the test. Eight mice were tested at each dosage level.
Each mouse received one dose of the test drug (usually 100 mg/kg for screening) in the 0.5% aqueous methylcellulose or the control article (0.5% aqueous methylcellulose alone) intraperitoneally. Metrazole (80 mg/kg S.C.) was then given in a loose fold of skin on the back of the neck, 1/2 hour after the test compound or control article was given. All injections were given in a volume of 10 ml/kg mouse body weight. […] Anticonvulsant data were tabulated as the percent protection, i.e., [formula] […] Hefner Publishing Co.

| SMILES | ED50 [1] [mg/kg] | ED50 [2] [mg/kg] | other results |
| --- | --- | --- | --- |
| NC(=O)N1CC(Oc2ccc(C(F)(F)F)cc2Cl)C1 [Example 1, 3-[2-Chloro-4-(trifluoromethyl)phenoxy]-1-azetidinecarboxamide] | 8.5 | 11.5 | – |
| CNC(=O)N1CC(Oc2ccc(C(F)(F)F)cc2Cl)C1 [Example 2, 3-[2-Chloro-4-(trifluoromethyl)phenoxy]-N-methyl-1-azetidinecarboxamide] | 6.4 | 11.3 | – |
| C=CCNC(=O)N1CC(Oc2ccc(C(F)(F)F)cc2Cl)C1 [Example 3, 3-[2-Chloro-4-(trifluoromethyl)phenoxy]-N-(2-propenyl)-1-azetidinecarboxamide] | 9.5 | – | Metrazole % protected ([2]; dose 10 mg/kg IP): 12.5%; Metrazole % protected ([2]; dose 36 mg/kg IP): 0% |
| CN(C)C(=O)N1CC(Oc2ccc(C(F)(F)F)cc2Cl)C1 [Example 4, 3-[2-Chloro-4-(trifluoromethyl)phenoxy]-N,N-dimethyl-1-azetidinecarboxamide] | 8.2 | – | Metrazole % protected ([2]; dose 31.6 mg/kg IP): 37.5%; Metrazole % protected ([2]; dose 52 mg/kg IP): 0%; Metrazole % protected ([2]; dose 100 mg/kg IP): 0% |
| CNC(=O)N1CC(Oc2ccccc2C(F)(F)F)C1 [Example 5, 3-[2-(Trifluoromethyl)phenoxy]-N-methyl-1-azetidinecarboxamide] | 125 | – | Metrazole % protected ([2]; dose 120 mg/kg IP): 0% |
| CNC(=O)N1CC(Oc2cccc(C(F)(F)F)c2)C1 [Example 6, N-Methyl-3-[3-(trifluoromethyl)phenoxy]-1-azetidinecarboxamide] | 29 | – | – |
| CNC(=O)N1CC(Oc2ccc(C(F)(F)F)cc2)C1 [Example 7, 3-(4-Trifluoromethylphenoxy)-N-methyl-1-azetidinecarboxamide] | 25.7 | 33 | – |
| CNC(=O)N1CC(Oc2ccccc2Cl)C1 [Example 8, 3-(2-Chlorophenoxy)-N-methyl-1-azetidinecarboxamide] | – | – | Electroshock % protected ([1]; dose 56.2 mg/kg IP): 0%; Metrazole % protected ([2]; dose 100 mg/kg IP): 0% |
| CNC(=O)N1CC(Oc2cccc(Cl)c2)C1 [Example 9, 3-(3-Chlorophenoxy)-N-methyl-1-azetidinecarboxamide] | 45.5 | – | Metrazole % protected ([2]; dose 100 mg/kg IP): 37.5% |
| CNC(=O)N1CC(Oc2ccc(Cl)cc2)C1 [Example 10, 3-(4-Chlorophenoxy)-N-methyl-1-azetidinecarboxamide] | 23.8 | 50 | – |
| NC(=O)N1CC(Oc2ccc(Cl)cc2Cl)C1 [Example 11, 3-(2,4-Dichlorophenoxy)-1-azetidinecarboxamide] | – | 31.6 | Electroshock % protected ([1]; dose 17.8 mg/kg IP): 0%; Electroshock % protected ([1]; dose 31.6 mg/kg IP): 100% |
| CN(C)C(=O)N1CC(Oc2ccc(Cl)cc2Cl)C1 [Example 12, 3-(2,4-Dichlorophenoxy)-N,N,-dimethyl-1-azetidinecarboxamide] | – | – | Electroshock % protected ([1]; dose 17.8 mg/kg IP): 0%; Electroshock % protected ([1]; dose 31.6 mg/kg IP): 100% |
| CNC(=O)N1CC(Oc2ccc(Cl)cc2Cl)C1 [Example 13, 3-(2,4-Dichlorophenoxy)-N-methyl-1-azetidinecarboxamide] | 18.5 | 40.9 | – |
| Cc1cccc(Cl)c1OC1CN(C(N)=O)C1 [Example 14, 3-(2-Chloro-6-methylphenoxy)-1-azetidinecarboxamide] | 81.5 | – | – |
| Cc1cccc(Cl)c1OC1CN(C(=O)N(C)C)C1 [Example 15, 3-(2-Chloro-6-methylphenoxy)-N,N-dimethyl-1-azetidinecarboxamide] | – | – | Electroshock % protected ([1]; dose 31.6 mg/kg IP): 37.5-62.5% |
| CNC(=O)N1CC(Oc2c(C)cccc2Cl)C1 [Example 16, 3-(2-Chloro-6-methyphenoxy)-N-methyl-1-azetidinecarboxamide] | 53 | – | – |
| CNC(=O)N1CC(Oc2ccc(F)cc2Cl)C1 [Example 17, 3-(2-Chloro-4-fluorophenoxy)-N-methyl-1-azetidinecarboxamide] | 44.5 | 32.8 | – |
| CNC(=O)N1CC(Oc2cc(C(F)(F)F)ccc2Cl)C1 [Example 18, 3-[2-Chloro-5-(trifluoromethyl)phenoxy]-N-methyl-1-azetidinecarboxamide] | – | – | Electroshock % protected ([1]; dose 56.2 mg/kg IP): 37.5%; Electroshock % protected ([1]; dose 100 mg/kg IP): 50% |
| CNC(=O)N1CC(Oc2cc(C(F)(F)F)ccc2F)C1 [Example 19, 3-[2-Fluoro-5-(trifluoromethyl)phenoxy]-N-methyl-1-azetidine-carboxamide] | – | – | Electroshock % protected ([1]; dose 31.6 mg/kg IP): 50%; Electroshock % protected ([1]; dose 56.2 mg/kg IP): 50% |
| CNC(=O)N1CC(Oc2ccc(Cl)c(Cl)c2)C1 [Example 20, 3-(3,4-Dichlorophenoxy)-N-methyl-1-azetidinecarboxamide] | 39.5 | 49.5 | – |
